The results in this text go back to PubChem BioAssay AID743371 (Vanderbilt Specialized Chemistry Center, 2014).

Active and inactive are the calls of the source. How the calls were made is not given here.

The target of this assay is D(4) dopamine receptor (Homo sapiens) (UniProt P21917). Nature of the assay: DRD4 antagonism, single-point inhibition (AID 743371). Conditions: D4 receptor antagonist assay; at 10 µM; active compounds read high.
For orientation: inhibition means the drop in the measured response relative to a control, in per cent. As to `COc1ccc(CN2CCOC(CCc3ccccc3)C2)cc1` (stereo not given), the inhibition was 98%.
As to `Fc1cccc(F)c1CN1CCOC(CCc2ccccc2)C1` (stereo not given), the inhibition was 51%.
Turning to `FC(F)(F)Oc1cccc(CN2CCOC(CCc3ccccc3)C2)c1` (stereo not given), the inhibition is 88%.
The same measure for `O=C(c1ccno1)N1CCOC(CCc2ccccc2)C1` (stereo not given): -14% (inactive).
In the case of `Cc1ccccc1NC(=O)N1CCOC(CCc2ccccc2)C1` (stereo not given) it was 15% (inactive).
In the case of `c1ccc(CCC2CN(c3ccccc3)CCO2)cc1` (stereo not given) it was 5% (inactive).
For the compound `Cn1c(N2CCOC(CCc3ccccc3)C2)nc2ccccc21` (stereo not given), the inhibition was 17% (inactive).
In the case of `Cc1ccc(N2CCOC(CCc3ccccc3)C2)cc1` (stereo not given) it was 6% (inactive); in that of `COc1ccc(NC(=O)N2CCOC(CCc3ccccc3)C2)cc1` (stereo not given), -2% (inactive).
In the case of `COc1ccc(CN2CCO[C@H](CCc3ccccc3)C2)cc1` it was 86%.
In the case of `O=S(=O)(c1ccccc1Cl)N1CCOC(CCc2ccccc2)C1` (stereo not given) it was 13% (inactive); in that of `FC(F)(F)Oc1ccc(CN2CCOC(CCc3ccccc3)C2)cc1` (stereo not given), 94%.
On to `O=C(c1cccc(F)c1)N1CCOC(CCc2ccccc2)C1` (stereo not given), for which the inhibition was 1% (inactive).
The same measure for `O=C(Nc1ccc(Cl)cc1)N1CCOC(CCc2ccccc2)C1` (stereo not given): 16% (inactive); for `O=C(Nc1ccccc1)N1CCOC(CCc2ccccc2)C1` (stereo not given): 3% (inactive); for `CC(C)(C)c1ccc(S(=O)(=O)N2CCOC(CCc3ccccc3)C2)cc1` (stereo not given): 5% (inactive).
The same measure for `COc1ccc(C(=O)N2CCOC(CCc3ccccc3)C2)cc1` (stereo not given): -5% (inactive); for `O=C(Nc1ccccc1Cl)N1CCOC(CCc2ccccc2)C1` (stereo not given): 2% (inactive).
In the case of `O=S(=O)(c1cccc(F)c1)N1CCOC(CCc2ccccc2)C1` (stereo not given) it was 13% (inactive); in that of `O=C(c1cccnc1)N1CCOC(CCc2ccccc2)C1` (stereo not given), 18% (inactive); in that of `O=C(c1ccc(Cl)cc1)N1CCOC(CCc2ccccc2)C1` (stereo not given), 7% (inactive).
As to `O=C(c1cc(F)c(F)c(F)c1)N1CCOC(CCc2ccccc2)C1` (stereo not given), the inhibition is 10% (inactive).
Consider `O=C(Nc1ccc(F)cc1)N1CCOC(CCc2ccccc2)C1` (stereo not given), for which the inhibition was 5% (inactive).
In the case of `O=C(Nc1cccc(F)c1)N1CCOC(CCc2ccccc2)C1` (stereo not given) it was -11% (inactive); in that of `c1ccc(CCC2CN(Cc3cccnc3)CCO2)cc1` (stereo not given), 35% (inactive).
As to `Clc1ccc(CN2CCO[C@H](CCc3ccccc3)C2)cc1`, the inhibition was 96%.
In the case of `O=S(=O)(c1ccccc1F)N1CCOC(CCc2ccccc2)C1` (stereo not given) it was 9% (inactive).
Turning to `c1ccc(CCC2CN(Cc3ccccc3)CCO2)cc1` (stereo not given), the inhibition was 74%.
In the case of `c1ccc(CCC2CN(Cc3ccncc3)CCO2)cc1` (stereo not given) it was 13% (inactive).
In the case of `O=S(=O)(c1ccccc1OC(F)(F)F)N1CCOC(CCc2ccccc2)C1` (stereo not given) it was 6% (inactive); in that of `Cc1ccccc1CN1CCOC(CCc2ccccc2)C1` (stereo not given), 54%; in that of `Cc1ccc(NC(=O)N2CCOC(CCc3ccccc3)C2)cc1` (stereo not given), 12% (inactive).
In the case of `Clc1ccc(CN2CCOC(CCc3ccccc3)C2)cc1` (stereo not given) it was 97%; in that of `O=S(=O)(c1ccccc1)N1CCOC(CCc2ccccc2)C1` (stereo not given), 2% (inactive).
For `Cc1ccc(C(=O)N2CCOC(CCc3ccccc3)C2)cc1` (stereo not given), the inhibition is 17% (inactive).
In the case of `Cc1cc(C)c(C(=O)N2CCOC(CCc3ccccc3)C2)c(C)c1` (stereo not given) it was -8% (inactive).
In the case of `O=C(c1ccc2c(c1)OCCO2)N1CCOC(CCc2ccccc2)C1` (stereo not given) it was -4% (inactive).
The same measure for `COc1ccc(CN2CCO[C@@H](CCc3ccccc3)C2)cc1`: 44% (inactive); for `O=C(c1ccc2ccccc2n1)N1CCOC(CCc2ccccc2)C1` (stereo not given): -1% (inactive).
For the compound `FC(F)(F)Oc1ccc(CN2CCO[C@H](CCc3ccccc3)C2)cc1`, the inhibition was 96%.
In the case of `O=C(c1ccccc1)N1CCOC(CCc2ccccc2)C1` (stereo not given) it was 5% (inactive); in that of `c1ccc(CCC2CN(Cc3ccccn3)CCO2)cc1` (stereo not given), 23% (inactive).
As to `O=S(=O)(c1ccc(F)cc1)N1CCOC(CCc2ccccc2)C1` (stereo not given), the inhibition is -8% (inactive).
In the case of `Cc1cccc(S(=O)(=O)N2CCOC(CCc3ccccc3)C2)c1` (stereo not given) it was 13% (inactive); in that of `Fc1ccc(CN2CCOC(CCc3ccccc3)C2)cc1` (stereo not given), 88%.
Consider `Clc1ccc(CN2CCO[C@@H](CCc3ccccc3)C2)cc1`, for which the inhibition was 39% (inactive).
The same measure for `c1ccc(CCC2CN(c3ccc4ncccc4c3)CCO2)cc1` (stereo not given): 16% (inactive); for `O=S(=O)(c1ccc2ccccc2c1)N1CCOC(CCc2ccccc2)C1` (stereo not given): -3% (inactive).
As for `O=C(Nc1ccccc1F)N1CCOC(CCc2ccccc2)C1` (stereo not given), the inhibition was 4% (inactive).
Consider `FC(F)(F)Oc1ccc(CN2CCO[C@@H](CCc3ccccc3)C2)cc1`, for which the inhibition was 25% (inactive).
